# Source: ChEMBL document CHEMBL1121737, “Synthesis and evaluation of some stable multisubstrate adducts as specific inhibitors of spermidine synthase” (J Med Chem, 1981)
# What was measured:
# [1] = target: T1, Spermidine synthase (Rattus norvegicus) (UniProt Q99MI5); experiment: Inhibition of spermidine synthase at 100 uM concentration of the compound; values are per cent of control
# T1 sequence (whole entry): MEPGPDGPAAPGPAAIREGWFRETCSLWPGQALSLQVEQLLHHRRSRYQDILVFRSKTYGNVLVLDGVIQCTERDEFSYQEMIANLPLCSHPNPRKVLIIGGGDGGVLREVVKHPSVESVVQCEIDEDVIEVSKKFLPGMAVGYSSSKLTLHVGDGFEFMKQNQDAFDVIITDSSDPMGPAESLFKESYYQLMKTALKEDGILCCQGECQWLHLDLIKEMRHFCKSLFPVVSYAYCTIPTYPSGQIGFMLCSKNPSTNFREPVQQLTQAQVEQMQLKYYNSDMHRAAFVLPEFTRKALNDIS
# [2] = target: T1, Spermidine synthase (Rattus norvegicus); experiment: Inhibition of spermidine synthase at 25 uM concentration of the compound; values are per cent of control
# [3] = target: T1, Spermidine synthase (Rattus norvegicus); experiment: Inhibition of spermidine synthase at 10 uM concentration of the compound; values are per cent of control
# [4] = target: T1, Spermidine synthase (Rattus norvegicus); experiment: Inhibition of spermidine synthase at 50 uM concentration of the compound; values are per cent of control
# [5] = system: spermine synthase (Rattus norvegicus); experiment: Inhibition of spermine synthase at 50 uM concentration of the compound; values are per cent of control
# [6] = system: spermine synthase (Rattus norvegicus); experiment: Inhibition of spermine synthase at 100 uM concentration of the compound; values are per cent of control
# [7] = target: T1, Spermidine synthase (Rattus norvegicus); experiment: Inhibition of spermidine synthase at 250 uM concentration of the compound; values are per cent of control
# [8] = system: spermine synthase (Rattus norvegicus); experiment: Inhibition of spermine synthase at 250 uM concentration of the compound; values are per cent of control
# [9] = target: T1, Spermidine synthase (Rattus norvegicus); experiment: Inhibition of spermidine synthase at 5 uM concentration of the compound; values are per cent of control
# [10] = system: spermine synthase (Rattus norvegicus); experiment: Inhibition of spermine synthase at 10 uM concentration of the compound; values are per cent of control
# [11] = target: T2, Spermidine synthase (Rattus norvegicus, UniProt Q99MI5); experiment: Inhibitory activity against spermidine synthase; details: read-out: I50
# T2 sequence (Q99MI5 whole entry): T1 sequence (whole entry)
# [12] = system: spermine synthase (Rattus norvegicus); experiment: Inhibition of spermine synthase at 25 uM concentration of the compound; values are per cent of control
residual activity [1],residual activity [2],residual activity [3],residual activity [4],residual activity [5],residual activity [6],residual activity [7],residual activity [8],residual activity [9],residual activity [10],IC50 [11],residual activity [12],SMILES
104%,102%,,,,,,,,,,,CCCCCC(CC)SC[C@H]1OC(n2cnc3c(N)ncnc32)[C@H](O)[C@@H]1O (stereo partly drawn)
1%,3%,3%,1%,,,,,,,,,NCCCCCC(CCN)SC[C@H]1O[C@@H](n2cnc3c(N)ncnc32)[C@H](O)[C@@H]1O (stereo partly drawn)
8%,31%,68%,16%,60%,41%,4%,14%,84%,93%,15 µM,,C[S+](C[C@H]1O[C@H](n2cnc3c(N)ncnc32)[C@H](O)[C@@H]1O)C(CCN)CCCCCN (stereo partly drawn)
80%,99%,98%,93%,65%,44%,56%,25%,,94%,250 µM,88%,CCCCCC(CC)[S+](C)C[C@H]1O[C@H](n2cnc3c(N)ncnc32)[C@H](O)[C@@H]1O (stereo partly drawn)
